Assay results reported in patent publication US6103888A, “Mammalian cationic proteins having lipopolysaccharide binding and anti-coagulant activity” (priority 1999, dated 2000).

Assays:
Human plasma [1] = assay: Prothrombin time (PT); format: biochemical
Protocol: Prothrombin time (PT). Human plasma (100 μl) was incubated with 100 μl of each peptide at 37° C. for 3 min., then 100 μl of tissue factor (250 μg/ml) CaCl2 was added and clotting time was measured.

RAW 264.7 cells [2] = assay: Reversal of LPS-induced inhibition of cell proliferation; format: cell-based, murine; settings: cultures containing 5 ng/ml of LPS
Protocol: When LPS is added to RAW 264.7 cells it causes a dose-dependent inhibition of proliferation with differentiation of the cells into a macrophasge phenotype.

[3] = test system: thioglycollate-stimulated murine peritoneal macrophages; assay: LPS-induced tissue factor generation by macrophages (clotting assay); format: cell-based
Protocol: Tissue factor assay. Salmonella minnesota smooth LPS was incubated with each peptide (1 μg/ml) for 5 min., then the mixture was added to peritoneal murine macrophages obtained 4 days after thioglycollate stimulation. Cells were cultured for 6 hours prior to assay of tissue factor by clotting assay.
Various concentrations of Salmonella minnesota smooth LPS were incubated with each peptide (197 (RNIP), 36-1, 32-1, and 50-2) at 37° C. for 5 minutes prior to mixing with thioglycollate-stimulated murine peritoneal macrophages. Production of tissue factor after 6 hr. was measured by clotting assay. […] In the absence of LPS no tissue factor is synthesized by these cells.

E. coli O9:K39 K+ strain = assay: Antibacterial CFU assay
[4] = test system: thioglycolate elicited murine peritoneal exudate cells; assay: RNI generation by thioglycolate elicited peritoneal exudate cells; format: cell-based; settings: for RNI: RNIP 50 nm
Protocol: (§1) From the sequence of the CAP18 cDNA, it was apparent that the putative N-terminal peptide of CAP18 was in fact an internal fragment of the CAP18 protein. We therefore tried to reconfirm the original protein sequence. Neutrophil-derived heparin bound cationic proteins were prepared as described above and applied to a C18 reverse phase HPLC (FIG. 1). We sequenced the major peaks. Peaks at fractions 14.5 and 15.2 correspond to defensins MCP1 and MCP2 (Territo et al. (1989) J. Clin. Invest. 84:2017-2019), respectively. Fraction 25.8 is macrophage related protein 14 (MRP14) (Odink et al. (1987) Nature 330:80-82). The fraction at 20.3 minutes corresponds to a fragment of CAP18 of approximately 4-5 kD. […] The murine macrophage cell line RAW 264.7 (obtained from ATCC) and thioglycollate-elicited murine peritoneal exudate cells are used to produce RNI. Cells are cultured at 1×10^6 /ml. in RPMI-1640 +2.5% FCS in 24 well plates in the presence or absence of different concentrations of LPS or murine rlFNγ. After 24 hr. incubation at 37° C., the cell free supernatant is collected and tested for the presence of RNI. Accumulation of nitrite in the medium is measured by a calorimetric assay based on the Griess reaction (Green et al. (1982) Anal. Biochem. 126:11) using sodium nitrite as standards. Sample (50 μl) is mixed with 50 μl of Griess reagent (1% sulfanilamide, 0.1% naphthalene diamine dihydrochloride, 2.5% H3 PO4) and after 10 min. at room temperature absorbance is read at 570 nm.

RAW 264.7 cells [5] = assay: LPS- or IFNγ-induced reactive nitrogen intermediate (RNI) production, Griess nitrite assay; format: cell-based, murine
Protocol: as §1

Human plasma [6] = assay: Partial thromboplastin time (PTT); format: biochemical; settings: dose dependent
Protocol: Partial thromboplastin time (PTT). Human plasma (100 μl) was incubated with each peptide (100 μl) at 37° C. for 3 min., then 100 μl of CaCl2 containing phospholipid was added and clotting time was measured.

factor X = target: T1, factor X (Homo sapiens, UniProt P00742); assay: Factor X activation by tissue factor and factor VII, synthetic substrate S-2222; format: biochemical; settings: synthetic substrate; listed as 197
T1 construct: purchased Sigma Chemical Co., St. Louis, Mo
T1 sequence (P00742 183-488): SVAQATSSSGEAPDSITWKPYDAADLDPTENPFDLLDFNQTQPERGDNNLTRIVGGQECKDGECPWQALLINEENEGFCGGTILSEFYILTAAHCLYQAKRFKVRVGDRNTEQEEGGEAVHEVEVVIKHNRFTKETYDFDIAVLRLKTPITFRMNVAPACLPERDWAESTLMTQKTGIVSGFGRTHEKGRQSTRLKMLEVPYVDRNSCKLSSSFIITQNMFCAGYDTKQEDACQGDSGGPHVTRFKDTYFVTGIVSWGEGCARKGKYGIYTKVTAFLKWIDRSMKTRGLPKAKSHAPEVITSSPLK
T1 sequence (P00742 41-179): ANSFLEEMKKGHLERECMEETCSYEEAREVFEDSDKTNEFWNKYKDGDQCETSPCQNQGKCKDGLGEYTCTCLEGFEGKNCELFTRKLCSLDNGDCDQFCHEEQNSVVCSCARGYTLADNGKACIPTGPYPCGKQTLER
Protocol: Factor Xa activity using synthetic substrate. A reaction mixture of factor VII (1 unit/ml, 200 μl), factor X (1 unit/ml, 200 μl), tissue factor (2.5 mg/ml, 50 μl), 25 mM-CaCl2 (50 μl) and 50 μl of several concentration of peptide was incubated at 37° C. for 10 min. To 200 Al of the reaction mixture, 60 μl of 4 mM S-2222, a synthetic substrate for factor Xa, and 340 μl of Tris-HCl buffer, pH 8.2, was added and further incubated for 15 min. The reaction was stopped by adding 60 μl of 50% acetic acid, and OD for p-nitroaniline was read at 405 nm.

ddY mice = assay: Tissue factor lethality model; format: in vivo; settings: for Survival (%): Tissue factor 1.0 mg/mouse IV
Protocol: Tissue factor lethality model. Reference tissue factor (simplastin, 1 mg/mouse) was IV injected into ddY mice (male, 20-week-old, 38-45 g) incubated with or without peptide.
^a Tissue factor (Simplastin, 10 mg/ml was mixed with equal volume of
synthetic peptide 100 μg/ml or 50 μg/ml and 0.2 ml of the mixture
injected IV. ddY mice (20 weeks, 38-45 gm).

Substance: RNIP: rabbit reactive nitrogen inhibitory protein, amino acids 135-171 of SEQ ID NO:4; purified from granulocytes (Tables 1-3) or synthetic (#197) (GLRKRLRKFRNKIKEKLKKIGQKIQGLLPKLAPRTDY)
- inhibition of the prothrombin time (PT), in words (Human plasma [1]): inhibited
- effect on LPS-induced inhibition of RAW 264.7 cell proliferation (RAW 264.7 cells [2]): reverses the inhibition of proliferation
- inhibition of LPS-induced tissue factor generation, peptide added after LPS ([3]; added as late as 3 hours after the LPS stimulus): Significant inhibition
- inhibition of LPS induced tissue factor (in words) ([3]; peptides 1 μg/ml incubated with S. minnesota smooth LPS 5 minutes, 6 hr): inhibition
- IC50, anti-bacterial activity (E. coli O9:K39 K+ strain): 0.14 µg/mL
- IC50 (E. coli O9:K39 K+ strain; read-out: IC50, anti-bacterial activity): 20 nM
- RNI ([4]; IFNγ 500 U/ml, without RNIP 4.0 ± 0.8): 1.1 µM
- IC50 ([4]; IFNγ stimulated, read-out: IC50 for inhibition of gamma interferon stimulated nitrogen radical release): < 50 nM
- RNI ([4]; LPS + IFNγ 1 ng + 500 U/ml, without RNIP 26 ± 0.6): 14 ± 0.7 µM
- concentrations at which peptides are active in the bioassay (RAW 264.7 cells [5]; day-to-day variation in the bioassay): 10 to 50 nM
- inhibition of LPS-induced RNI production (in words) (RAW 264.7 cells [5]; macrophages / RAW 264.7 cells): active
- inhibition of the partial thromboplastin time (PTT), in words (Human plasma [6]): inhibited
- IC50, Tissue factor VII, X to Xa (factor X): 0.3 to 0.7 µg/mL
- Survival (%) (ddY mice; Peptide #197 5 μg/mouse): 43%
- Survival (%) (ddY mice; Peptide #197 10 μg/mouse, p < 0.05 vs tissue factor control): 57%
- reduction of mortality (ddY mice; tissue factor IV (Simplastin, 1 mg/mouse)): 57%
